In PMC6104039 (Nature Communications, 2018):
Where “and” joins values, the source holds several entries; their conditions need not be identical. Equal entries are not always repeated.

System: SkM
Test: Lipidomic profiling of skeletal muscle (quadriceps) of mice on chow or HFD
Assay type: in vivo
Source text: Male C57BL6/J mice were obtained from the Animal Resources Centre in Perth (WA, Australia). […] Treatment was commenced at the same time as mice were randomised to dietary groups. The experiments were approved by the UNSW animal care and ethics committee (ACEC 15/48B), and followed guidelines issued by the National Health and Medical Research Council of Australia.
Lipids were extracted from frozen tissue samples or cells using a two-phase procedure with methyl-tert-butyl ether (MTBE)/methanol/water (10:3:2.5, v/v/v)[67]. Frozen tissue samples (~20 mg) were homogenized in 0.2 mL methanol containing 0.01% butylated hydroxytoluene (BHT), using a Precellys 24 homogenizer and Cryolys cooling unit (Bertin Technologies) with CK14 (1.4-mm ceramic) beads. The homogenates were spiked with an internal standard mixture comprising 5 nmole 19:0/19:0 phosphatidylcholine and 2 nmole each of 17:0/17:0 phosphatidylethanolamine, 17:0/17:0 phosphatidylserine, 17:0/17:0 d5-diacylglycerol, 17:0/17:0 phosphatidylglycerol, 14:0/14:0/14:0/14:0 cardiolipin, 18:1/12:0 SM, 18:1/17:0 ceramide, 18:1/12:0 glucosylceramide, 18:1/12:0 lactosylceramide, 18:1/12:0 sulfatide (all from Avanti Polar Lipids, USA), and 17:0/17:0/17:0 TAG (Cayman Chemical, USA), then transferred to 10 mL screw cap glass tubes. The homogenization tubes containing beads were then washed with another 0.3 mL methanol, and this wash was combined with the first methanol extract, after which 1.7 mL MTBE was added and the samples were sonicated in an ice-cold sonicating water bath (Thermoline Scientific, Australia) for 30 min. Phase separation was induced by addition of 417 µL of mass spectrometry-grade water followed by vortexing and centrifugation at 1000 × g for 10 min. The upper organic phase was collected into 5 mL glass tubes. The lower phase was re-extracted by adding 1 mL MTBE, 300 μL methanol, and 250 μL water. The organic phases were combined in the 5 mL glass tubes and dried under vacuum in a Savant SC210 SpeedVac (Thermo Scientific), then reconstituted in 500 μL methanol and stored at −20 °C until analysis.
Lipidomic profiling was performed on a QExactive Plus mass spectrometer with heated electrospray ionization (HESI) probe and a Dionex UltiMate 2000 LC pump (Thermo Fisher Scientific). Extracts were resolved on a 2.1 × 100 mm Waters Acquity C18 UPLC column (1.7 µm […]), using a binary gradient in which mobile phase A consisted of acetonitrile:water (60:40), 10 mM ammonium formate, 0.1% formic acid; and mobile phase B was isopropanol:acetonitrile (90:10), 10 mM ammonium formate, 0.1% formic acid[68]. The flow rate was 260 µL/min and column oven 55 °C. Data was acquired in full scan/data-dependent MS^2 mode (full scan resolution 70,000 FWHM, scan range 400–1200 m/z). The ten most abundant ions in each cycle were subjected to MS^2 using an isolation window of 1.4 m/z, collision energy 30 eV, resolution 17,500, maximum integration time 110 ms and dynamic exclusion window 10 s. An exclusion list of background ions was used based on a solvent blank. LipidSearch v4.1.30 software (ThermoFisher Scientific) was used for chromatogram alignment, peak identification and integration. Each lipid peak was manually verified for column elution time and characteristic fragment ions. Data were then exported to an Excel spreadsheet for normalisation of each lipid to its class-specific internal standard, and lipid concentrations were calculated relative to the internal standard.
Data were log transformed, then subjected to two-tailed t-tests adjusted for multiple comparisons using GraphPad PRISM (Benjamini, Krieger and Yekutieli correction, Q = 1%).

[1] = 5 mg/kg daily, 4–6 weeks, HFD group

Structure (SMILES): C[C@@](N)(CO)CCc1ccc(OCc2ccc(Cl)c(Cl)c2)cc1 [P053, (S)-2-amino-4-(4-(3,4-dichlorobenzyloxy)phenyl)-2-methylbutan-1-ol]
- HexCer content of SkM (5 mg/kg daily, 4–6 weeks): not significantly affected
- levels of common phospholipids in SkM (5 mg/kg daily, 4–6 weeks): did not affect
- total ceramide content of SkM (5 mg/kg daily, 4–6 weeks): reduced total ceramide content
- 42:2 SM in SkM [1]: significantly increased
- very long chain ceramides (C22:0, C24:0 and C24:1) in SkM [1]: significantly increased
- mean levels of 36:1 SM in SkM, lower than vehicle (5 mg/kg daily, 4–6 weeks, both diets, not statistically significant): 13%
- Ceramide 18:1/16:0 content of skeletal muscle (Chow + P053, individual mice): 3.10 and 1.77 (2×) and 2.74 and 1.05 and 2.59 and 2.04 and 2.73 and 4.80 and 1.58 and 1.47 and 1.10 and 1.69 and 1.86 and 1.78 and 2.17 and 1.48 (2×)
- Ceramide 18:1/18:0 content of skeletal muscle (Chow + P053, individual mice): 20.71 and 17.58 and 23.00 and 14.06 and 16.77 and 18.40 (2×) and 20.26 and 15.08 and 13.86 and 23.04 and 23.06 and 23.01 and 18.78 and 15.44 and 14.24 and 19.21 and 15.87
- Ceramide 18:1/20:0 content of skeletal muscle (Chow + P053, individual mice): 0.50 and 0.38 (2×) and 0.51 and 0.33 and 0.44 and 0.57 and 0.41 and 0.18 (2×) and 0.21 and 0.17 (2×) and 0.22 and 0.15 (2×) and 0.13 and 0.20
- Ceramide 18:1/22:0 content of skeletal muscle (Chow + P053, individual mice): 1.58 and 1.18 and 1.27 and 1.31 and 1.33 and 1.24 and 2.02 and 1.70 and 0.82 and 0.97 and 0.93 and 1.37 and 0.85 and 1.53 and 1.04 (2×) and 0.62 and 0.77
- Ceramide 18:1/24:0 content of skeletal muscle (Chow + P053, individual mice): 2.05 and 1.75 and 2.39 and 1.84 (2×) and 2.22 and 3.08 and 3.05 and 1.41 and 1.81 and 2.08 and 2.47 and 0.10 and 2.48 and 0.14 and 1.18 and 1.87 and 1.61
- Ceramide 18:1/24:1 content of skeletal muscle (Chow + P053, individual mice): 5.19 and 4.17 and 5.42 and 4.06 and 4.86 and 4.12 and 6.25 and 6.63 and 2.73 and 3.16 and 3.08 and 4.65 and 3.22 and 4.69 and 3.70 and 2.46 and 3.14 and 2.75
- Ceramide 18:2/18:0 content of skeletal muscle (Chow + P053, individual mice): 1.63 and 1.36 and 1.77 and 0.81 and 1.04 and 1.34 and 1.47 (2×) and 1.60 and 2.11 and 1.87 and 1.91 and 1.85 and 1.31 and 1.49 and 1.75 and 1.71 and 1.50
- SM 34:1 content of skeletal muscle (Chow + P053, individual mice): 155.00 and 75.29 and 64.44 and 51.84 and 157.48 and 87.87 and 37.17 and 61.63 and 56.39 and 26.64 and 21.61 and 27.95 and 26.10 and 29.76 and 25.67 and 36.05 and 29.79 and 28.45
- SM 36:1 content of skeletal muscle (Chow + P053, individual mice): 408.35 and 391.75 and 244.36 and 209.60 and 257.92 and 303.73 and 198.39 and 281.99 and 211.03 and 160.27 and 169.50 and 130.04 and 157.61 and 130.34 and 143.84 and 173.19 and 158.59 and 154.00
- SM 36:2 content of skeletal muscle (Chow + P053, individual mice): 5.68 and 10.86 and 10.80 and 2.69 and 6.07 and 9.49 and 5.32 and 8.00 and 6.39 and 4.78 and 4.58 and 3.87 and 4.48 and 3.64 and 4.59 and 6.14 and 4.52 and 4.32
- SM 38:1 content of skeletal muscle (Chow + P053, individual mice): 13.22 and 12.48 and 5.72 and 6.13 and 5.91 and 5.41 and 17.63 and 9.33 and 1.53 and 1.84 and 1.68 and 1.39 and 1.34 and 1.51 and 1.41 and 1.37 and 2.56 and 1.65
- SM 40:1 content of skeletal muscle (Chow + P053, individual mice): 28.35 and 29.55 and 12.61 and 11.97 and 14.98 and 15.26 and 24.07 and 17.95 and 17.87 and 21.14 and 17.97 and 25.28 and 16.09 and 25.29 and 21.99 and 14.69 and 26.69 and 18.42
- SM 40:2 content of skeletal muscle (Chow + P053, individual mice): 2.18 and 3.25 and 1.19 and 1.06 and 1.18 and 0.98 and 4.74 and 3.00 and 1.89 and 2.04 and 2.38 and 2.68 and 1.85 and 2.58 and 2.52 and 1.52 and 2.57 and 1.93
- SM 42:1 content of skeletal muscle (Chow + P053, individual mice): 26.96 and 32.88 and 11.84 and 14.58 and 16.55 and 13.22 and 32.58 and 20.65 and 17.62 and 18.82 and 16.13 and 27.77 and 16.56 and 31.99 and 21.25 and 13.55 and 28.43 and 16.15
- SM 42:2 content of skeletal muscle (Chow + P053, individual mice): 78.98 and 85.87 and 38.45 and 39.28 and 45.06 and 42.02 and 67.24 and 61.76 and 56.89 and 58.53 and 52.21 and 80.69 and 50.18 and 74.84 and 63.29 and 51.49 and 78.04 and 54.99
- SM 42:3 content of skeletal muscle (Chow + P053, individual mice): 11.26 and 12.44 and 7.12 and 5.50 and 7.16 and 6.69 and 11.58 and 9.28 and 9.04 and 9.58 and 8.81 and 14.49 and 7.86 and 11.12 and 9.61 and 8.30 and 13.11 and 8.65
- total SkM TAG content, lower than HFD vehicle group (HFD + P053): 60%
- Ceramide 18:1/16:0 content of skeletal muscle (HFD + P053, individual mice): 1.10 and 2.17 and 1.83 and 1.12 (2×) and 2.90 and 1.46 and 0.87 (2×) and 1.73 and 3.22 and 1.34 and 1.89 and 1.27 and 1.41 and 1.14 and 1.04 and 0.99 and 1.01
- Ceramide 18:1/18:0 content of skeletal muscle (HFD + P053, individual mice): 14.13 and 13.78 and 15.90 and 15.58 and 21.96 and 19.36 and 13.96 and 15.88 and 24.31 and 19.32 and 17.61 and 21.70 and 17.37 and 21.41 and 15.56 and 12.14 and 18.07 and 11.49 and 13.22
- Ceramide 18:1/20:0 content of skeletal muscle (HFD + P053, individual mice): 0.45 (2×) and 0.54 and 0.57 and 0.65 and 0.48 and 0.42 and 0.40 and 0.77 and 0.10 (2×) and 0.08 (2×) and 0.06 (2×) and 0.07 (2×) and 0.05 and 0.09
- Ceramide 18:1/22:0 content of skeletal muscle (HFD + P053, individual mice): 1.69 and 1.43 and 1.68 and 1.85 and 2.17 and 1.53 and 1.50 and 1.46 and 2.26 and 1.14 and 1.16 and 1.47 and 1.36 and 1.00 and 1.18 and 0.98 and 1.30 and 1.04 and 1.72
- Ceramide 18:1/24:0 content of skeletal muscle (HFD + P053, individual mice): 1.53 (2×) and 1.50 and 1.85 and 1.78 and 2.27 and 1.57 (2×) and 1.81 and 2.48 and 1.41 and 1.31 and 1.65 and 1.24 and 1.83 and 1.21 and 1.67 and 1.20 and 1.73
- Ceramide 18:1/24:1 content of skeletal muscle (HFD + P053, individual mice): 4.07 and 3.37 and 3.91 and 3.88 and 4.88 and 3.55 (2×) and 3.81 and 5.60 and 2.28 and 2.44 and 3.08 and 2.82 and 2.33 and 2.75 and 2.49 and 2.86 and 2.35 and 3.30
- Ceramide 18:2/18:0 content of skeletal muscle (HFD + P053, individual mice): 0.85 (2×) and 1.05 and 0.95 and 1.06 and 1.53 and 1.34 and 0.98 and 1.27 and 2.27 and 1.58 and 1.22 and 1.29 (2×) and 0.73 and 0.92 and 1.11 and 0.97 and 0.74
- SM 34:1 content of skeletal muscle (HFD + P053, individual mice): 56.88 and 99.05 and 291.61 and 79.88 and 179.42 and 129.66 and 30.83 and 225.53 and 214.19 and 48.41 and 47.17 and 48.35 and 37.16 and 22.64 and 38.24 and 42.99 and 33.41 and 36.54 and 32.79
- SM 36:1 content of skeletal muscle (HFD + P053, individual mice): 417.25 and 223.91 and 402.67 and 173.58 and 151.95 and 224.57 and 278.63 and 314.63 and 349.53 and 221.70 and 178.54 and 207.41 and 149.58 and 139.86 and 137.50 and 198.09 and 163.61 and 154.30 and 147.61
- SM 36:2 content of skeletal muscle (HFD + P053, individual mice): 2.88 and 7.47 and 1.66 and 1.87 and 1.75 and 5.22 and 2.66 and 6.56 and 8.38 and 7.06 and 6.58 and 7.04 and 4.61 and 3.90 and 3.95 and 6.89 and 4.71 and 5.16 and 4.33
- SM 38:1 content of skeletal muscle (HFD + P053, individual mice): 11.48 and 13.05 and 11.02 and 10.80 and 17.24 and 10.17 and 15.13 and 9.50 and 12.28 and 0.77 (2×) and 0.82 and 1.11 and 0.80 and 0.71 (2×) and 0.68 and 0.83 and 0.73
